# In patent publication US12503426B2, “Synthetic derivatives of oleoyl-lysophosphatidylinositol (oleoyl-LPI) and uses thereof” (LIPOVEXA SRL, priority 2017, dated 2025):
# What was measured:
# Glutag cells = experiment: GLP-1 secretion by Glutag cells; assay type: cell-based, murine; details: Glutag cells
# Experimental: Glutag cells were maintained in low glucose DMEM (Sigma) (1 g/L) containing 2.0 mM L-glutamine, 1.0 mM sodium pyruvate and supplemented with 10% FBS, 100 IU/ml penicillin, 100 μg/ml streptomycin at a 37° C. and 5% CO2.
# Approximately 80,000 Glutag cells were plated in poly-L-lysine-coated 24-well culture plates and grown to about 80% confluence. NCI-H716 cells were seeded on growth factor reduced Matrigel™ (Becton Dickinson, Bedford, MA) in DMEM medium, supplemented with 10% FBS the day before the experiment. For NCI-H716 cells, approximately 25,000 cells were needed for this secretion experiment in order to have good stimulation with lower basal GLP-1 secretion. In brief, Glutag and NCI-H716 cells were washed twice and then incubated for 2 h with FBS-free DMEM containing 1% (M:C) alone (negative control), 10 μM forskolin as positive control (Sigma-Aldrich), or with different concentrations of Oleoyl-LPI. M:C was used as a solvent to prepare stock solutions of fatty acid derivatives and inhibitors. For secretion experiments, medium and cells were collected separately.
# In separate studies, GLUTag or NCI-H716 cells were pre-treated for 1 hour with medium alone (1% DMSO, negative control), PD98059 (50 μM; Sigma Chemical Co.), H89 (10 μM; Santa Cruz) followed by treatment with oleoyl-LPI (20 μM), OEA (10 μM), AR231453(1 μM), PMA (10 μM) or forskolin (10 μM, positive control) in the presence of inhibitors, as appropriate, for about 2 h. Medium GLP-1 secretion was calculated as total GLP-1 content of medium normalised for the basal secretion of the control.
# In order to investigate the role of different LPI species in enteroendocrine cells, murine (Glutag) and human (NCI-H716) L-cells were stimulated with the following different species of LPI: Arachidonyl-LPI, Stearoyl-LPI, Heptadecenoyl-LPI and oleoyl-LPI, as well as with OEA and LPC. Experiments were performed in duplicate, n=4 and the level of total GLP-1 was measured by ELISA.
# NCI-H716 cells = experiment: GLP-1 secretion in NCI-H716 cells, in vitro human L cells model (Examples 30-33); assay type: cell-based; details: for Emax: Homo sapiens, NCI-H716, 2 h; for activity in inducing and/or increasing secretion of GLP-1 from cells of the GI tract: summary statement, compared with oleoyl-LPI; for GLP-1 biosynthesis and secretion from NCI-H716 L cells / level of GLP-1 biosynthesis and secretion compared with oleoyl-LPI: 20 μM, 2 hours; for GLP-1 biosynthesis and secretion from NCI-H716 L cells: normalized against DMSO vehicle control
# Experimental: (§1) To evaluate the GLP-1 biosynthesis and secreting capabilities of the compounds of formula I in vitro using the human-derived cell line NCI-H716, 50,000 such cells were seeded per well of a 24-well plate pre-coated with a thin layer of Matrigel (0.15 mg/ml) in RPMI complete (RPMI additioned with FBS 10%, Glucose 2 g/L, Glutamine 4 mM, Sodium Bicarbonate 2 g/L, Pen/Strep 1× pH 7.4 at 37° C.) and incubated at 37° C. in humidified 5% CO2 atmosphere to induce endocrine differentiation.
# After 48 hours, media was withdrawn and cells washed once with warm HBSS (Hank's balanced salt solution) and then incubated in duplicate for 2 hours with the different dilutions of the oleoyl-LPI, OEA, DMSO (as negative control), a test compound of formula I, and KR-62436 10 μg/ml, all dissolved in RPMI serum free (RPMI complete without FBS) at 37° C. in humidified 5% CO2 incubator. Supernatant were quickly collected on ice and stored at −80° C. before quantification of GLP-1 with a commercial ELISA (EMD Millipore) specific for active-GLP-1 species.
# as §1, with “1×pH” for “1× pH”
# After 48 hours, media was withdrawn and cells washed twice with pre-warm HBSS (Hank's balanced salt solution) and then incubated in duplicate for 2 hours with 250 μl of 20 μM of either oleoyl-LPI, DMSO (as negative control) or a test compound of formula I, and […], all dissolved in RPMI serum free (RPMI complete without FBS) at 37° C. in humidified 5% CO2 incubator. Compounds of formula I tested were ps297b, ps316a, ps318a, ps319a, ps321a and ps323.
# Supernatant were quickly collected on ice and stored at −80° C. before quantification of GLP-1 with a commercial ELISA (EMD Millipore) specific for active-GLP-1 species (e.g., GLP-1 (7-36) amide) and […]).
# Compounds of formula I were tested for GLP-1 secretion in NCI-H716 cells essentially as describe in examples 30 and 31 above. EC50 GLP-1 secretion readout results were standardized relative to maximum GLP-1 secretion obtained with oleoyl-LPI. EC50 readout results were rated as low GLP-1 secretion activity (0-20% of maximum GLP-1 secretion achieved with oleoyl-LPI), moderate (21-79% of maximum GLP-1 secretion achieved with oleoyl-LPI), and high GLP-1 activity (80% and more of maximum GLP-1 secretion achieved with oleoyl-LPI). Table 3 also outlines the R1, R2 and R3 substituents of the compounds of formula I.
# [1] = test system: colonic cells of the GI tract obtained from guinea pig; experiment: Ex vivo GLP-1 biosynthesis and secretion, guinea pig GI tract cells; assay type: cell-based
# Experimental: To test for this, a pregnant guinea pig was anesthetized with isoflurane and sacrificed via intra-cardial injection of pentobarbital. Colon and rectum were quickly collected and intraluminal content washed out with ice-cold HBSS. After a thorough cleansing from the faecal material, and gentle scraping of the internal mucosa, the tissue was minced into 3 to 5-millimetre pieces and resuspended into 50 ml of ice cold HBSS. Pellet was spun down and washed again in 50 ml of ice-cold HBSS. Supernatant was carefully removed, and the epithelial fragments were then resuspended for 30 minutes at 37° C. into a 5 ml solution of HEPES 25 mM, collagenase-P 1 mg/ml in HBSS, pH 7.4 at 37° C.
# The tissue was then pelleted and resuspended further for about 30 to 40 additional minutes at 37° C. within a 10 ml solution of 1 mg/ml collagenase-P as above.
# After the digestion, about 40 ml of pre-warmed DMEM complete media was added (FBS 10%, glucose 4.5 g/L, glutamine 4 mM, sodium pyruvate 1 mM, HEPES 25 mM, sodium bicarbonate 3.7 g/L, Pen/Strep 1× and Ciprofloxacin 10 μg/ml pH 7.4 at 37° C.). Crypts and individual cells were isolated with a […] nylon strainer, spun down at 200 g for 5 minutes, resuspended into 10 ml of DMEM complete media and plated into 20 wells of a 24-well plate coated with a 3D gel of 3 mg/ml Matrigel (BD, Biosciences, Oxford, UK). After one day of incubation at 37° C. 5% CO2 in a humidified incubator, cells were washed with 500 μl of warm HBSS, and treated with 250 μl DMEM serum free (Complete medium without FBS) additioned with KR-62436 10 μg/ml and individually the following drugs or compounds: Forskolin and IBMX (20 μM each), oleoyl-LPI, and the two oleoyl-LPI analogs and/or derivatives ps297b (prepared as described in example 13) and ps316a (prepared as described in example 22) were all tested in quadruplicate at 20 μM.
# After a 2-hour long incubation at 37 C 5% CO2, the supernatants were collected on ice, and quickly stored at […]. Active GLP-1 levels (7-37 amide and 7-36) were quantified on 50 μl of supernatant with an ELISA commercial kit (EMD Millipore). DMSO was used as a negative control, the combination of Forskolin and IBMX was included as positive control activators GLP-1. GLP-1 levels measured were standardized against the DMSO control.
# The EC50 levels each one of oleoyl-LPI, compound ps297b and compound ps316a were also measured in quadruplicates at the conclusion of the 2 hour incubation. Guinea pig cells obtained as described above were also incubated with […] in quadruplicates and subjected to 2-hour long incubation at 37 C 5% CO2 as described above and EC50 levels measured.
# [2] = NCI-H716 cells, standardized relative to maximum GLP-1 secretion obtained with oleoyl-LPI
Structure (SMILES),Emax (NCI-H716 cells; [2]),further results
"CC(C)c1noc(C2CCN(c3ncnc(Nc4ccc(S(C)(=O)=O)cc4F)c3[N+](=O)[O-])CC2)n1 [AR-231,453]",,"GLP-1 secretion (Glutag cells; two hours treatment, compound alone): significantly increases GLP-1 secretion"
"CCCCC/C=C\C/C=C\C/C=C\C/C=C\CCCC(=O)NCc1ccc(O)c(OC)c1 [Arvanil, N-arachidonoyl-vanillyl-amide]",,"antagonist activity for GPR119 (inventors' conclusion) (Glutag cells): weak antagonist for GPR119; GLP-1 secretion, combination treatment (Glutag cells; Arvanil together with AR-231,453): significantly reduced GLP-1 secretion; GLP-1 secretion, combination treatment (Glutag cells; Arvanil with either OEA or LPI): significantly enhanced GLP-1 secretion"
CCCCCCCC/C=C\CCCCCCCC(=O)Nc1ccc(C#N)cc1 [ps292a],0 to 20%,
CCCCCCCC/C=C\CCCCCCCC(=O)Nc1ccc(C(=O)OC)cc1 [ps293a],0 to 20%,
CCCCCCCC/C=C\CCCCCCCC(=O)Nc1ccc(C(=O)O)cc1 [ps294a],0 to 20%,
CCCCCCCC/C=C\CCCCCCCC(=O)Nc1ccc(-c2nnn(C)n2)cc1 [ps298a],0 to 20%,
CCCCCCCC/C=C\CCCCCCCC(=O)Nc1ccc(-c2nnnn2C)cc1 [ps298b],0 to 20%,
CCCCCCCC/C=C\CCCCCCCC(=O)Nc1ccc(O)cc1 [ps300b],0 to 20%,
CCCCCCCC/C=C\CCCCCCCC(=O)Nc1ccc(OC)cc1 [ps301a],0 to 20%,
CCCCCCCC/C=C\CCCCCCCC(=O)Nc1ccc(C#N)cc1F [ps306a],0 to 20%,
CCCCCCCC/C=C\CCCCCCCC(=O)Nc1ccc(C#N)c(F)c1 [ps308c],0 to 20%,
CCCCCCCC/C=C\CCCCCCCC(=O)Nc1ccc(-c2nnn[nH]2)cc1F [ps309a],> 80%,activity in inducing and/or increasing secretion of GLP-1 from cells of the GI tract (NCI-H716 cells): equal to or higher than oleoyl-LPI
CCCCCCCC/C=C\CCCCCCCC(=O)Nc1ccc(-c2nnn[nH]2)c(F)c1 [ps312a],21 to 79%,
CCCCC/C=C\C/C=C\CCCCCCCC(=O)Nc1ccc(C#N)cc1 [ps314b],0 to 20%,
CCCCCCCC/C=C\CCCCCCCC(=O)Nc1cccc(C#N)c1 [ps315a],0 to 20%,
CCCCC/C=C\C/C=C\CCCCCCCC(=O)Nc1ccc(-c2nnn[nH]2)cc1 [ps316a],> 80%,"GLP-1 biosynthesis and secretion from NCI-H716 L cells (NCI-H716 cells): able to mediate GLP-1 biosynthesis and secretion; level of GLP-1 biosynthesis and secretion compared with oleoyl-LPI (NCI-H716 cells; NCI-H716 cells): higher than those achieved from oleoyl-LPI; activity in inducing and/or increasing secretion of GLP-1 from cells of the GI tract (NCI-H716 cells): equal to or higher than oleoyl-LPI; GLP-1 levels compared with oleoyl-LPI ([1]; 20 μM, 2 hours): above those observed for the endogenous GRP119 ligand, oleoyl-LPI; GLP-1 biosynthesis and secretion ex vivo ([1]; 20 μM, 2 hours, standardized against DMSO control): stimulated biosynthesis and secretion; stability after incubation ex vivo ([1]; 2 hours incubation ex vivo): remained stable after 2 hours incubation ex vivo; EC50 ([1]; Cavia porcellus, ex vivo incubation 2 hours, quadruplicates): 22.4 µM"
CCCCCCCCCCCCCCCC(=O)Nc1ccc(C#N)cc1 [ps317b],0 to 20%,
CCCCCCCC/C=C\CCCCCCCC(=O)Nc1cccc(-c2nnn[nH]2)c1 [ps318a],> 80%,GLP-1 biosynthesis and secretion from NCI-H716 L cells (NCI-H716 cells): able to mediate GLP-1 biosynthesis and secretion; level of GLP-1 biosynthesis and secretion compared with oleoyl-LPI (NCI-H716 cells; NCI-H716 cells): higher than those achieved from oleoyl-LPI; activity in inducing and/or increasing secretion of GLP-1 from cells of the GI tract (NCI-H716 cells): equal to or higher than oleoyl-LPI
CCCCC/C=C\C/C=C\CCCCCCCC(=O)Nc1ccc(C#N)cc1F [ps319],0 to 20%,GLP-1 biosynthesis and secretion from NCI-H716 L cells (NCI-H716 cells): able to mediate GLP-1 biosynthesis and secretion
CCCCCCCCCCCCCCCC(=O)Nc1ccc(-c2nnn[nH]2)cc1 [ps320c],0 to 20%,
CCCCCCCC/C=C\CCCCCCCC(=O)Nc1ccc(-c2nnn[nH]2)cc1.[Na+] [ps321a],,GLP-1 biosynthesis and secretion from NCI-H716 L cells (NCI-H716 cells): able to mediate GLP-1 biosynthesis and secretion; GLP-1 secretion Activity relative to oleoyl-LPI (NCI-H716 cells; [2]): Low (low GLP-1 secretion activity (0-20% of maximum GLP-1 secretion achieved with oleoyl-LPI))
CCCCC/C=C\C/C=C\CCCCCCCC(=O)Nc1ccc(-c2nnn[nH]2)cc1F [ps323b],0 to 20%,GLP-1 biosynthesis and secretion from NCI-H716 L cells (NCI-H716 cells): able to mediate GLP-1 biosynthesis and secretion
